According to PubChem BioAssay (NCI):
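Method: 48-hour compound exposure of cells in 96-well plates, five concentrations, linear interpolation of endpoints. TGI: total growth inhibition.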

Legend:
Assay in all cases: DTP human tumour cell line panel, 48 h
[1] = tested on: A549 NSCLC
[2] = tested on: HCT-15 colon
[3] = tested on: K-562 leukemia
[4] = tested on: DLD-1 colon
[5] = tested on: MALME-3M melanoma
[6] = tested on: UO-31 renal
[7] = tested on: SW-620 colon
[8] = tested on: CAKI-1 renal
[9] = tested on: KM12 colon
[10] = tested on: U251 CNS
[11] = tested on: HT29 colon
[12] = tested on: RPMI-8226 leukemia
[13] = tested on: MOLT-4 leukemia
[14] = tested on: UACC-257 melanoma
[15] = tested on: SR leukemia
[16] = tested on: LOX IMVI melanoma
[17] = tested on: 786-0 renal
[18] = tested on: HS 578T breast
[19] = tested on: MCF7 breast
[20] = tested on: EKVX NSCLC

Structure (SMILES) | TGI [1] [µM] | TGI [2] [µM] | TGI [3] [µM] | TGI [4] [µM] | TGI [5] [µM] | TGI [6] [µM] | TGI [7] [µM] | TGI [8] [µM] | TGI [9] [µM] | TGI [10] [µM] | TGI [11] [µM] | TGI [12] [µM] | TGI [13] [µM] | TGI [14] [µM] | TGI [15] [µM] | TGI [16] [µM] | TGI [17] [µM] | TGI [18] [µM] | TGI [19] [µM] | TGI [20] [µM]
Cc1cc(=O)[nH]c(NNC(C#N)c2ccco2)n1 (stereo not drawn) | > 100 | > 100 | > 100 | > 100 | > 100 | > 100 | > 100 | > 100 | > 100 | > 100 | > 100 | > 100 | > 100 | > 100 | > 100 | > 100 | > 100 |  |  | 
CC[C@H]1C=CCC[C@@]2(C[C@@H]3CC[C@H]4[C@H](C(=O)OCCCCCCCCCCCCCCCC(=O)N(CCCN)C[C@@H](O)CCN)[C@]5(CCC[C@@H](C)O5)NC(=[N+]34)N2)O1 | 1.74 | 2.18 | 1.05 |  | 0.806 | 1.69 | 3.51 | 1.87 | 1.82 | 1.44 | 1.48 | 0.833 | 1.29 | 2.02 | 1.23 | 1.38 | 1.86 | 4.26 | 1.51 | 2.66
COc1cccc(Nc2nc(N)nc(N)c2N=O)c1 | > 100 | 47 | > 100 |  | > 100 | 38.1 | > 100 | 55.4 | > 100 | > 100 | 75.3 | 60.6 | 41.8 | 56.9 | 45.5 | 32.6 | 70.2 | 82.4 | > 100 | > 100
O=C1NC2C(CCO)CC=C[C@H]2c2cc3c(cc21)OCO3 (stereo partly drawn) | > 100 | > 100 | > 100 | > 100 | > 100 | > 100 | > 100 |  | > 100 | > 100 | > 100 | > 100 | > 100 | > 100 | > 100 | > 100 | > 100 |  |  | > 100
COc1cccc(C2c3cc4c(cc3OC(N3CCCCC3)C2C)OCO4)c1OC (stereo not drawn) | 22.3 | 26.3 | 20.7 |  | 39.4 | 48.6 | 68.9 | 11 | 23.8 | 51.5 | 19.8 | 21.6 | 30.4 | 36.2 | 4.02 | 20.1 | > 100 | 29.5 | 52.1 | 54.5
COC1=CC(=O)C2C(C1=O)C(c1ccc(OC)c(OC)c1)[C@H]2C (stereo partly drawn) | > 100 | 34.5 | 54.4 | 31.5 | 35.3 | > 100 | 40.6 | 24 | > 100 | > 100 | > 100 | 38.4 | 31.3 | 41.1 |  | 40.4 | 31.9 |  |  | > 100
Nc1ncnc2c1ncn2C1CC(OC2CCCCO2)C(CO)O1 (stereo not drawn) | > 100 | > 100 | > 100 | > 100 | > 100 | > 100 | > 100 |  | > 100 | > 100 | > 100 | > 100 | > 100 | > 100 | > 100 | > 100 | > 100 |  |  | > 100
CC12C(=O)OC(=O)C1(C)C1C=CC2O1 (stereo not drawn) | > 100 | > 100 | > 100 |  | > 100 | > 100 | > 100 | > 100 | > 100 | > 100 | > 100 | > 100 | > 100 | > 100 | > 100 | > 100 | > 100 | > 100 | > 100 | > 100
COC(=O)c1ccc(NCC2=CC(=O)C=CC2=O)cc1 | 41.8 | 25.9 | 6.95 |  | 13.9 | 19.5 | 25.9 | 7.68 | 28.6 | 28.7 | 38.8 | 7.22 | 9.58 | 25.7 | 61 | 17.8 | 7.86 | > 100 | 30.8 | 28.2
CC(C)NC(=O)OCc1c(COC(=O)NC(C)C)c(-c2ccc[n+](COC(=O)C(C)(C)C)c2)n2c1CCC2 | > 100 | > 100 | > 100 |  | > 100 | > 100 | > 100 | 99.7 | > 100 | > 100 | > 100 | > 100 | > 100 | > 100 | > 100 | > 100 | > 100 | > 100 | > 100 | > 100
O=c1c(=[n+]2ccc(=C([O-])c3ccccc3)cc2)/c(=N/S(=O)(=O)c2ccccc2)c(=O)c2ccccc12 | 29.8 | 28.2 | 9.98 |  | 16.9 | 23.9 | 22 | 5.19 | 28.3 | 16.1 | 28 | 18.9 | 14.8 | 23.9 | 13.4 | 9.45 | 19.5 | 18.7 | 25.7 | 27
O=Nc1c(NO)ccc2nn(-c3ccccc3)nc12 | > 100 | > 100 | > 100 |  | > 100 | 11.8 | > 100 | 71.3 | > 100 | > 100 | > 100 | > 100 | 74.5 | 11.7 | > 100 | > 100 | > 100 | > 100 | 19.6 | > 100
CN1N=C2c3ccccc3CC[C@H]2C1c1cccc(O)c1 (stereo partly drawn) | > 100 | > 100 | > 100 | > 100 | 5.01 | > 100 | > 100 |  | > 100 | > 100 | > 100 | > 100 | > 100 | > 100 | > 100 | > 100 | > 100 |  |  | > 100
O=c1/c(=C/c2ccc([N+](=O)[O-])o2)sc2n1[C@@H](c1ccc3c(c1)OCO3)C=C(c1cc(F)c(Cl)cc1Cl)N=2 | > 100 | 64.9 | > 100 |  | 40.5 | 42.2 | > 100 | 33.6 | 38.4 | 46.5 | 46 | > 100 | > 100 | 34.8 | > 100 | 42.9 | 42.1 | > 100 | 32.4 | 32.7
c1cc(C[S+]2CCCC2)sc1C[S+]1CCCC1 | > 100 | > 100 | > 100 |  | > 100 | > 100 | > 100 | > 100 | > 100 | > 100 | > 100 | > 100 | > 100 | > 100 | > 100 | > 100 | > 100 | > 100 | > 100 | > 100
OC(CC(O)(C(F)(F)F)C(F)(F)F)C(O)c1ccco1 (stereo not drawn) | > 10 | > 10 | > 10 |  | > 10 | > 10 | > 10 | > 10 | > 10 | > 10 | > 10 | > 10 | > 10 | > 10 | > 10 | > 10 | > 10 | > 10 | > 10 | > 10
C=C(CN)CO[Si](C)(C)C(C)(C)C | > 100 | > 100 | > 100 |  | > 100 | > 100 | > 100 | > 100 | > 100 | > 100 | > 100 | > 100 | > 100 | > 100 | > 100 | > 100 | > 100 | > 100 | > 100 | > 100
CC1C(O)Oc2cc3c(cc2C1c1ccccc1O)OCO3 (stereo not drawn) | > 100 | > 100 | 46.5 |  | 83.8 | > 100 | > 100 | > 100 | > 100 | > 100 | 66.6 | 48.1 | 61.7 | > 100 | 25.2 | > 100 | > 100 | 46.6 | > 100 | > 100
O=C(O)C1=NN(c2ccc(S(=O)(=O)O)cc2)C2(C1)SCC(=O)N2c1nc2ccccc2s1 (stereo not drawn) | > 100 | > 100 | > 100 |  | > 100 | > 100 | > 100 | > 100 | > 100 | > 100 | > 100 | > 100 | > 100 | > 100 | > 100 | > 100 | > 100 | > 100 | > 100 | > 100
COc1ccc2c(c1)OC(c1ccccc1O)CC2=O (stereo not drawn) | > 100 | > 100 | > 100 | > 100 | > 100 | 96.8 | > 100 | > 100 | > 100 | > 100 | > 100 | > 100 | > 100 | > 100 |  |  | > 100 |  |  | > 100
O=C(O)c1ccc(NNC(=O)c2cccc3c(=O)c4ccccc4[nH]c23)cc1 | > 100 | > 100 | > 100 |  | > 100 | > 100 | > 100 | > 100 | > 100 | > 100 | > 100 | > 100 | > 100 | > 100 | > 100 | > 100 | > 100 | > 100 | > 100 | > 100
COc1ccc(C2S/C(=C\c3ccccc3)C(=O)N2NC(=O)Cc2ccccc2)cc1 (stereo not drawn) | > 100 | > 100 | > 100 | > 100 | > 100 | > 100 | > 100 | > 100 | > 100 | > 100 | > 100 | > 100 | > 100 | > 100 | > 100 | > 100 | > 100 |  |  | 
O=C(N/N=C(\c1nc2ccc(Cl)cc2[nH]c1=O)C(O)c1ccccc1Cl)c1ccncc1 (stereo not drawn) | > 100 | > 100 | > 100 | > 100 | > 100 | > 100 | > 100 | > 100 | > 100 |  | > 100 |  | > 100 | > 100 |  | > 100 | > 100 |  |  | > 100
CCOC(=O)c1ccc(N=c2oc3ccc(OC)cc3cc2-c2nc3ccccc3[nH]2)cc1 | > 100 | > 100 | > 100 |  | > 100 | > 100 | > 100 | > 100 | > 100 | > 100 | > 100 | > 100 | > 100 | > 100 | > 100 | > 100 | > 100 | > 100 | > 100 | > 100
CC(C)C1COC(c2ccc3ccccc3c2-c2c(O[Si](C)(C)C(C)(C)C)ccc3ccccc23)=N1 (stereo not drawn) | 31.7 | 46.7 | 31.9 | 31.4 | 32.9 | 28.2 | 35.1 | 45.2 | 35.7 |  | 29 | 33.2 | 32 | 34.1 |  | 45.5 | 32.4 |  |  | 35.3
